Laboratory results taken from US9060981B2, “Marker associated with non-alcoholic steatohepatitis” (MOCHIDA PHARMACEUTICAL CO., LTD., priority 2009, dated 2015).
“Also recorded” adds a separate entry of the source.

Tests used:
B6 mice = experiment: Fatty liver in B6 mice raised 20 weeks on high fat/high sugar diet; assay type: in vivo, mouse; details: high fat/high sugar diet + 5% EPA-E, free feeding, 20 weeks (group III)
From the text: B6 mice (10 week old) were divided into control group (I), HF-HS group (II), and EPA group (III) (n=7 to 10), and the mice were raised for 20 weeks by free feeding of the following diet.

[1] = test system: second factor group genes in the liver; experiment: Gene microarray analysis of the liver of mice on high fat/high sugar diet; assay type: in vivo, mouse; details: EPA group vs HF-HS group, 20 weeks
From the text: (2) Next, expression of genes in the liver was compared in 3 groups, namely, the control group fed with normal diet, the HF-HS group, and the EPA group. […] (A) HF-HS group/control group ≧2 and EPA group/HF-HS group ≦0.5. (B) HF-HS group/control group ≦0.5 and EPA group/HF-HS group ≧2. Liver was extirpated from the mice of each group, and RNA was extracted by homogenization to conduct gene microarray analysis of the liver. The genes were selected as described below. (1) Genes with group II/group I expression ratio of 2 or higher and group III/group II expression ratio of up to 1/2 were selected. (2) Genes with the group II/group I expression ratio of up to 1/2 and the group III/group II ratio of 2 or more were selected. […] (4) Genes which are (1) but not (3) were selected. (5) Genes which are (2) but not (3) were selected. Next, factors with the possibility of protein secretion into blood were selected from the genes (4), and then, genes satisfying any of relevance with lipid metabolism, relevance with inflammation, increase of expression in the liver of SREBP transgenic mouse were selected from these genes. Genes were selected from the genes (5) by conducting the procedure corresponding to (6).

NASH model rats = details: telmisartan administered for 10 weeks; cited from earlier work

Structure (SMILES)	fatty liver (B6 mice)	group III/group II expression ratio, second factor (A) group genes ([1]; genes with group II/group I ratio of 2 or higher (Table 2))	group III/group II expression ratio, second factor (B) group genes ([1]; genes with group II/group I ratio of up to 1/2 (Table 3))	expression of TIMP1 and TIMP2 mRNAs in the liver tissue (NASH model rats)	liver fibrosis (NASH model rats)
CC/C=C\C/C=C\C/C=C\C/C=C\C/C=C\CCCC(=O)OCC [EPA-E, ethyl icosapentate]	fatty liver was not observed; also recorded: fatty liver was not induced	up to 1/2	≥ 2		
CCCc1nc2c(C)cc(-c3nc4ccccc4n3C)cc2n1Cc1ccc(-c2ccccc2C(=O)O)cc1 [telmisartan]				decrease	suppression; also recorded: suppressed
